The source made the active and inactive calls. No stated cut-off is given here; in the data, active means inhibition above about 50%; inactive means the rest.
biological target: Gag-Pol polyprotein (Human immunodeficiency virus type 1 group M subtype B (isolate HXB2)) (UniProt P04585); assay: RNase H inhibition, HIV 1 Gag Pol polyprotein, FRET biochemical assay, screening (AID 372); conditions: HIV-1 RT RNase H, FRET RNA/DNA substrate fluorescence

Compound | IC50
O=C1C=CC(=O)C(c2cc(Cl)ccc2Cl)=C1 | 2.1 µM
COc1ccc2oc(=O)c(-c3csc(Nc4ccc(Br)cc4)n3)cc2c1 | 10.1 µM
CCOc1cccc(N2C(=O)/C(=C/c3cn(CC(=O)OC)c4ccccc34)C(=O)NC2=S)c1 | 5.5 µM
COc1ccc(N2C(=O)/C(=C\c3cn(CC(=O)Nc4ccccc4)c4ccccc34)C(=O)NC2=S)cc1 | 5 µM
NC(=O)c1c(N)sc2c1CCCCC2 | 2 µM
Cc1cc(Br)ccc1N1C(=O)/C(=C/c2ccco2)C(=O)NC1=S | 7 µM
CCOc1ccc(C(=O)Nc2ccc3c(c2)C(=O)c2ccccc2C3=O)cc1 | 8 µM
CCOc1ccc(NC(=O)c2c(NC(=O)c3ccco3)sc3c2CCCCC3)cc1 | 10 µM
Cc1ccc(C)n1-c1ccc(SCC(=O)O)cc1 | 8 µM
CC1=C(C)CC(C(=O)Nc2ccc(N3C(=O)c4ccccc4C3=O)cc2)C(C(=O)O)C1 (stereo unspecified) | 100 µM
COc1ccc(NC(=O)c2c(N)sc(-c3ccccc3)c2C)cc1 | 7 µM
O=C(Nc1ccc(N2CCN(C(=O)c3ccccc3)CC2)cc1)c1ccc(-c2ccccc2)cc1 | 4.2 µM
O=C1NC(=S)N(c2ccc(Cl)cc2)C(=O)/C1=C/c1ccco1 | 8.9 µM
Cc1cccc(NCC(=O)N/N=C\c2c(Br)cc(Br)c(O)c2Br)c1 | 62 µM
CCC(=O)Nc1sc2c(c1C(=O)Nc1ccc(OC)cc1)CCCCC2 | inactive
O=C1NN(c2ccc(I)cc2)C(=O)/C1=C\c1ccc(O)c(O)c1 | 10.8 µM
O=C(Oc1ccccc1)Oc1c(Cl)cc2oc(=O)sc2c1Cl | 19 µM
COc1ccc(-c2c(C#N)c(N)nc(SCC(=O)c3ccc(O)c(O)c3)c2C#N)cc1 | 1.8 µM
Cc1ccc(C=C2C(=O)NC(=S)N(c3ccccc3Cl)C2=O)o1 | 8 µM

Compound | IC50
Cc1cc(-c2ccc(C=C3C(=O)NC(=S)NC3=O)o2)c([N+](=O)[O-])cc1C | 3 µM
Cc1cc(I)c2c(c1)C1C=CCC1C(C(=O)O)N2 (stereo unspecified) | 100 µM
C=CCn1c(N)c(-c2nc3ccccc3[nH]2)sc1=S | 2.8 µM
COc1ccc(C(=O)NC(=S)Nc2ccc3nn(-c4ccc(C)c(Cl)c4)nc3c2)cc1[N+](=O)[O-] | 17 µM
Cc1ccc(-c2cc(C(=O)Nc3sc(C(=O)OC(C)C)c(C)c3C(N)=O)c3ccccc3n2)s1 | inactive
NC(=O)c1c(NC(=O)COc2ccccc2)sc2c1CCCCC2 | inactive
Cc1ccc(S(=O)(=O)/N=C2\C=C(Sc3ncn[nH]3)C(=O)c3ccccc32)cc1 | 1.3 µM
Cc1sc(NC(=O)c2ccco2)c(C(N)=O)c1C | 3.2 µM
O=C1NC(=O)/C(=C/c2ccc(-c3ccc(O)c(C(=O)O)c3)o2)S1 | 4.2 µM
Cc1ccc(NC(=O)c2c(NC(=O)c3ccccc3F)sc3c2CCCCC3)cc1 | inactive
O=C(N/N=C/c1ccc(/C=N/NC(=O)c2ccc(O)c(O)c2)cc1)c1ccc(O)c(O)c1 | 2.1 µM
N#C/C(=C\Nc1ccc(S(=O)(=O)Nc2nccs2)cc1)c1nc(-c2ccc(Cl)cc2)cs1 | 4.1 µM
Oc1c(Br)cc(/C=N/Nc2nnc3c(n2)[nH]c2ccccc23)c(Br)c1O | 4 µM
COc1cc(/C=N\c2sc3c(c2C(=O)NCc2ccccc2)CCCC3)cc(Cl)c1O | 2.1 µM
COc1ccc(N2C(=O)/C(=C/c3ccc(I)o3)C(=O)NC2=S)cc1 | 3.7 µM
O=C1/C(=C/c2ccc(O)c(O)c2)SC(=S)N1c1ccc(O)cc1 | 3.5 µM
O=C1NC(=S)S/C1=C/c1cccc(OCc2ccc(Cl)c(Cl)c2)c1 | 4 µM
Cc1cccc(NC(=O)c2c(NC(=O)c3ccc([N+](=O)[O-])cc3)sc3c2CCCC3)c1 | 1.5 µM
Cc1ccc(S(=O)(=O)N=C2C=CC(=O)C=C2)c(C)c1 | 1.9 µM

Compound | IC50
O=C1NC(=S)N(c2ccc(Cl)cc2)C(=O)/C1=C\C=C\c1ccccc1[N+](=O)[O-] | 3.3 µM
Cc1ccc(NC(=O)c2c(NC(=O)C(F)(F)F)sc(-c3ccccc3)c2C)c(C)c1 | 2.8 µM
Cc1cc(Cl)ccc1OCC(=O)Nc1sc(C)c(C)c1C(N)=O | 10.7 µM
C=CCN1C(=O)/C(=C\c2ccc([N+](=O)[O-])o2)C(=O)NC1=S | 75 µM
COc1ccccc1NC(=O)c1c(NC(=O)Cc2ccccc2)sc2c1CCCCC2 | inactive
O=C1CC(=O)c2ccc3c4c(ccc1c24)C(=O)CC3=O | 3.8 µM
Cc1ccccc1-n1c(O)c(C=C2C=CC=N2)c(=O)[nH]c1=S | 10.2 µM
Cc1ccc(S(=O)(=O)/N=C2\C=CC(=O)C=C2Cl)cc1 | 1.5 µM
COc1ccccc1N=C(NOCc1ccc(Cl)cc1Cl)c1nonc1N | 1.7 µM
O=C(NC(=S)Nc1cc(-c2nc3ccccc3s2)ccc1Cl)c1ccc(F)cc1 | 9.1 µM
CCOc1ccc(NC(=O)c2c(NC(=O)c3ccccc3)sc3c2CCCCC3)cc1 | inactive
CCOc1ccc(C2=CC(=O)C=CC2=O)cc1 | 0.9 µM
O=C(O)c1cc(-c2ccc(/C=C3/Sc4ccccc4C3=O)o2)ccc1O | 3.3 µM
Cc1sc2nc(-c3ccc([N+](=O)[O-])cc3)[nH]c(=O)c2c1C | 0.55 µM
Cc1ccc(C(=O)Nc2sc(C)c(C)c2C(N)=O)cc1 | 0.6 µM
COc1ccc(-c2nc3sc(-c4ccc(OC)cc4)nc3s2)cc1 | 1.9 µM
Cc1ccc(-c2c(C#N)c(SCC(=O)c3ccc(O)c(O)c3)nc3c2CCCC3)o1 | 6.5 µM
COc1ccc(/C=C\C(=O)c2c(-c3ccccc3)c3cc(C)ccc3[nH]c2=O)c(OC)c1 | 22 µM

Source: PubChem BioAssay AID372 (MTDP, 2006)
